The text below walks through data of patent publication US9115092B2, “Substituted quinazoline and pyrido-pyrimidine derivatives” (Asana Biosciences, LLC, priority 2010, dated 2015).

The target in experiment [1] is T1, PI3Kα (wild-type), P110/P85α (Homo sapiens, UniProt P42336).
T1 construct: made in house; host or cells: SF9 insect cells
In words: PI3 Kinase TR-FRET assay, PI3Kα (wild-type). Type of experiment: biochemical. Here is the method:
The ability of compounds of the invention to inhibit PI3K activity was determined in a homogeneous TR-FRET assay using a PI3K assay kit (Millipore, USA; cat #33-016) according to manufacturer's instructions. PI3-Kinases (isoforms α, β, γ and δ) catalyze the phosphorylation of phosphatidylinositol, PIP2 to PIP3 in the presence of ATP and Mg^2+. The PIP3 product is detected by displacement of biotin-PIP3 from an energy transfer complex consisting of Europium labeled anti-GST monoclonal antibody, a GST-tagged PH domain, biotinylated PIP3 and Streptavidin-APC. Excitation of Europium in the complex results in an energy transfer to the APC and a fluorescence emission at 665 nm. The PIP3 product displaces biotin-PIP3 from the complex resulting in a loss of energy transfer and thus a decrease in signal.
To test for the ability of compounds to inhibit the activity of PI3Kα (wild-type), exemplary compounds of formula (I) were dissolved in DMSO and directly distributed into 384-well plates at a volume of 0.5 μL. 14.5 μL of P110/P85α/PIP2 mixture in buffer (obtained from the Millipore kit) containing MgCl2 (40 mM) and DTT (5 mM) was added to compound wells and incubated for 60 min at room temperature. P110/P85α was expressed in SF9 insect cells and purified nickel column extraction. Five ng of wild-type P110/P85α was used in the assay. The kinase reaction was started by the addition of ATP. The assay concentrations of both PIP2 and ATP were 10 μM. The reaction mixture was incubated for 30 min at room temperature and was terminated by the addition of stop mix and detection mix. Fluorescence was measured at 615 and 665 nm upon excitation at 340 nm in a Victor™ V5 fluorometer (Perkin Elmer, USA). The fluorescence emission ratio at 665 to 615 nm, proportional to the kinase activity, was plotted against the compound concentration to generate dose-response curves and IC50 values were determined using GraphPad Prism® 5 software.

Experiment [2] has as its target T2, mTOR kinase (Homo sapiens, UniProt P42345).
T2 construct: purchased Millipore, USA
In words: mTOR kinase TR-FRET assay. Format: biochemical. The settings on record: read-out: mTO R. The method, then: Compound inhibition for mTOR kinase was determined in a homogeneous TR-FRET assay using the Lance® ULight-p70 S6K (Thr 389) peptide (obtained from Perkin-Elmer). The ULight™-labeled synthetic peptide contains the amino acid residues surrounding Thr389 of human p70 S6K. The ULight-p70 S6K peptide is phosphorylated at Thr389 by mTOR. Phosphorylation motif: LGFTYVAP as substrate.
The compound dilution was carried out in 100% DMSO followed by a buffer dilution. The reaction buffer was HEPES (50 mM pH 7.5), EGTA (1 mM), MnCl2 (3 mM). Test compounds at various concentrations were pre-incubated with mTOR (Millipore, USA; 5 ng) for 60 min, and then the Lance® ULight-p70 S6K (Thr 389) peptide (50 nM) was added along with ATP (20 μM). After incubating the reaction mixture for 60 min at room temperature, the kinase reaction was terminated by the addition of EDTA (10 mM) followed by the addition of detection mix, i.e., 1 nM Eu-labeled anti-phospho-substrate antibody (Perkin Elmer, USA). The fluorescence emission at […] was measured upon excitation at 340 nm. IC50 values were subsequently determined using a sigmoidal dose-response curve (variable slope) in GraphPad Prism® 5 software.
Compounds of formula (I) caused inhibition of mTOR kinase activity as determined by this assay.
For orientation: In TR-FRET formats the signal depends on donor and acceptor labels being close together.

T1 sequence (P42336 whole entry): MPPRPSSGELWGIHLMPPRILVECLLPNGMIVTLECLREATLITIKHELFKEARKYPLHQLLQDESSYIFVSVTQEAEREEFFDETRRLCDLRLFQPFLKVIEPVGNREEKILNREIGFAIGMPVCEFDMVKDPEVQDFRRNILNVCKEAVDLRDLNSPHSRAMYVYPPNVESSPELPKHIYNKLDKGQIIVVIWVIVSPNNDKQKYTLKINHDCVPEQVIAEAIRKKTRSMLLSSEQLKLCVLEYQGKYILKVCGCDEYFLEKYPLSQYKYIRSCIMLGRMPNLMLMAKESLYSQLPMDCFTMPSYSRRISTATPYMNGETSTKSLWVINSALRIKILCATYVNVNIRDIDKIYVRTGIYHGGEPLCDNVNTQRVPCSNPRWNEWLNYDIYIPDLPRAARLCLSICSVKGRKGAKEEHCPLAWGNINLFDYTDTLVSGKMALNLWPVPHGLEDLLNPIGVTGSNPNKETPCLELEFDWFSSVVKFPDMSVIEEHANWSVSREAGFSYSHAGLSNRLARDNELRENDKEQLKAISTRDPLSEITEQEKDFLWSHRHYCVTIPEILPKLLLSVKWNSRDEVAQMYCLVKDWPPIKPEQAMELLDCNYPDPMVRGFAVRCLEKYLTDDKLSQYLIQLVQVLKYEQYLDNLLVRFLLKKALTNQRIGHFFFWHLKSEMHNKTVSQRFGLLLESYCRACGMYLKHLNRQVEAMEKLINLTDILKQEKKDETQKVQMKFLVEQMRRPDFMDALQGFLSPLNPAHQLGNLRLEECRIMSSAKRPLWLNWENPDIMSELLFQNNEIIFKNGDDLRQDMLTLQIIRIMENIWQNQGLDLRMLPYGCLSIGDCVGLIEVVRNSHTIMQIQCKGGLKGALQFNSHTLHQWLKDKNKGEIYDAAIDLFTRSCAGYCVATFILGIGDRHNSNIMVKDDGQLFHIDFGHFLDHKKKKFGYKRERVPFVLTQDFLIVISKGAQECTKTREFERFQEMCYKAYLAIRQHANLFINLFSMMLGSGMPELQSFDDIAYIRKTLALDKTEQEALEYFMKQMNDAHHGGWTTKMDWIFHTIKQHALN
T1 sequence (P27986 whole entry partner): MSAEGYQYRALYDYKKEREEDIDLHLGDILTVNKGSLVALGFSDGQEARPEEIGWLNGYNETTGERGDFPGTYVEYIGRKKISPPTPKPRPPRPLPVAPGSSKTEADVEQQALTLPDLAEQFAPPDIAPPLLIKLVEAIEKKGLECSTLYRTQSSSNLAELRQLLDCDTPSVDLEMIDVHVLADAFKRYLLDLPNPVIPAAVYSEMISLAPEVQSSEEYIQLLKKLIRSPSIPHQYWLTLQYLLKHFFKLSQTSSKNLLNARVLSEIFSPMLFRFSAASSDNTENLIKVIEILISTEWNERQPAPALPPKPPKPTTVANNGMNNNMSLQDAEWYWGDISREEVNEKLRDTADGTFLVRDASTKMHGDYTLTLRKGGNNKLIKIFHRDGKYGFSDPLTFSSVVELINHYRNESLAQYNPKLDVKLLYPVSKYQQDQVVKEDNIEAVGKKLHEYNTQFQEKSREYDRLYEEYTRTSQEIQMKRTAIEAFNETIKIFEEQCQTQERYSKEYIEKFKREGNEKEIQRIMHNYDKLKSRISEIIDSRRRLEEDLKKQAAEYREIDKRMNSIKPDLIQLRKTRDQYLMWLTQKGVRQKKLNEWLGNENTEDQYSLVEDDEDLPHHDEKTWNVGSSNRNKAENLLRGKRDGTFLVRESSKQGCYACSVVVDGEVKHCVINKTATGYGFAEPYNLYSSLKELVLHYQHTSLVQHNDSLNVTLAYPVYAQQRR

For the compound `Cc1noc(C)c1-c1ccc2c(N3CCOCC3)nc(-c3ccc(NC(=O)Nc4ccc(C(=O)N5CCC(N(C)C)C5)cc4)c(F)c3)nc2c1` (stereo in doubt) [Example 221, (S)-1-(4-(3-(dimethylamino)pyrrolidine-1-carbonyl)phenyl)-3-(4-(7-(3,5-dimethylisoxazol-4-yl)-4-morpholino-quinazolin-2-yl)-2-fluorophenyl)urea], the IC50 in experiment [1] and in experiment [2] was 50 to 200 nM throughout.

For the compound `CN(C)CCNC(=O)c1ccc2c(N3CCOCC3)nc(-c3ccc(NC(=O)Nc4ccc(C(=O)N(C)C)cc4)cc3)nc2c1` [Example 7, 2-[4-{3-(4-Dimethycarbamoyl-phenyl)-Ureido]-phenyl}-4-morpholin-4-yl-quinazoline-7-carboxylic acid (2-dimethylamino-ethyl)-amide], the IC50 was 50 to 200 nM in experiment [1] and less than 50 nM in experiment [2].

For the compound `Cc1ccc(-c2ccc3c(N4CCOCC4)nc(-c4ccc(NC(=O)Nc5ccc(C(=O)N(C)C)cc5)c(F)c4)nc3c2)o1` [Example 8, 4-(3-{2-Fluoro-4-[7-(5-methyl-furan-2-yl)-4-morpholin-4-yl-quinazolin-2-yl]-phenyl}ureido)dimethyl-benzamide], the IC50 in experiment [1] was in the range of 201 to 10000 nM; in experiment [2], 50 to 200 nM.

On to `CN(C)C(=O)c1ccc(NC(=O)Nc2ccc(-c3nc(N4CCOCC4)c4ccc(-c5ccc(C(=O)O)o5)cc4n3)cc2)cc1` [Example 10, 5-(2-(4-(3-(4-(dimethylcarbamoyl)phenyl)ureido)phenyl)-4-morpholino-quinazolin-7-yl)furan-2-carboxylic acid], for which the IC50 in experiment [1] and in experiment [2] was less than 50 nM in each case.

For `CN1CCN(C(=O)c2ccc(-c3ccc4c(N5CCOCC5)nc(-c5ccc(NC(=O)Nc6ccc(C(=O)N(C)C)cc6)cc5)nc4c3)o2)CC1` [Example 11, N,N-dimethyl-4-(3-(4-(7-(5-(4-methylpiperazine-1-carbonyl)furan-2-yl)-4-morpholino-quinazolin-2-yl)phenyl)ureido)-benzamide], the IC50 in experiment [1] and in experiment [2] was less than 50 nM throughout.

As to `CN(C)C(=O)c1ccc(NC(=O)Nc2ccc(-c3nc(N4CCOCC4)c4ccc(-c5ccc(C#N)o5)cc4n3)c(F)c2)cc1` [Example 12, 4-(3-(4-(7-(5-cyanofuran-2-yl)-4-morpholino-quinazolin-2-yl)-3-fluorophenyl)ureido)-N,N-dimethyl-benzamide], the IC50 in experiment [1] and in experiment [2] was less than 50 nM in each case.

Regarding `CC(=O)c1ccc(-c2ccc3c(N4CCOCC4)nc(-c4ccc(NC(=O)Nc5ccc(C(=O)N(C)C)c(F)c5)cc4)nc3c2)o1` [Example 13, 4-(3-(4-(7-(5-acetylfuran-2-yl)-4-morpholino-quinazolin-2-yl)phenyl)ureido)-2-fluoro-N,N-dimethyl-benzamide], the IC50 in experiment [1] and in experiment [2] was less than 50 nM in each case.

`CN(C)C(=O)c1ccc(NC(=O)Nc2ccc(-c3nc(N4CCOCC4)c4ncc(-c5cnn(C)c5)cc4n3)c(F)c2F)cc1` [Example 14, 4-(3-(2,3-difluoro-4-(7-(1-methyl-1H-pyrazol-4-yl)-4-morpholino-pyrido[3,2-d]pyrimidin-2-yl)phenyl)ureido)-N,N-dimethyl-benzamide]: the IC50 in experiment [1] and in experiment [2] was less than 50 nM each time.

With `CC(O)c1ccc(-c2cnc3c(N4CCOCC4)nc(-c4ccc(NC(=O)Nc5ccc(C(=O)N(C)C)cc5)c(F)c4)nc3c2)o1` (stereo not shown) [Example 15, 4-(3-(2-fluoro-4-(7-(5-(1-hydroxyethyl)furan-2-yl)-4-morpholino-pyrido[3,2-d]pyrimidin-2-yl)phenyl)ureido)-N,N-dimethyl-benzamide], the IC50 in experiment [1] and in experiment [2] was less than 50 nM throughout.

For the compound `O=C(Nc1ccc(-c2nc(N3CCOCC3)c3ccc(-c4cccnc4F)cc3n2)cc1)Nc1ccc(N2CCCC2=O)cc1` [Example 292, 1-(4-(7-(2-fluoropyridin-3-yl)-4-morpholinoquinazolin-2-yl)phenyl)-3-(4-(2-oxopyrrolidin-1-yl)phenyl)urea], in experiment [2], the IC50 is less than 50 nM.
